# Reference: patent publication US8980944B2 (Gemmus Pharma Inc., priority 2006, dated 2015)
# Where “and” joins values, the source holds several entries; their conditions need not be identical. Equal entries are not always repeated.
# How the values were obtained:
# IL-12 [1] = details: DC activated in the presence of PGE2; Hilkens et al. 1996; cited from earlier work
# IL-12 [2] = assay: LPS-stimulated human monocyte-derived dendritic cells, IL-12 release (ELISA); details: 1 μM; human monocyte-derived dendritic cells, LPS stimulation; individual donors 1-4
# TNFα [3] = assay: Poly(I:C)-stimulated human monocyte-derived dendritic cells, TNFα release (ELISA); type: cell-based; details: Poly IC-stimulated monocyte-derived dendritic cells, one micromolar, 18 hours
# TNFα [4] = assay: TNFα release from human monocyte-derived dendritic cells activated with LPS, CD40 ligand or CpG-DNA (ELISA); type: cell-based; details: 1 μM; for TNFα in culture supernatant: 18 hours
# Experimental: Human donor monocyte-derived dendritic cells were cultured in RPMI-1640 containing 10% fetal bovine serum for six days in the presence of 10 ng/mL IL-4 and 200 ng/mL GM-CSF. The cells were activated with various activation stimuli: 10 ng/mL LPS (Sigma), 5 μg/mL Recombinant human CD-40 ligand (R&D Systems), or 5 μM Human CpG-DNA (HyCult Biotechnology) in the presence of prostaglandin E2 (PGE2) (1 μM), vehicle control (DMSO) or test substances (1 μM) for 18 hours. The levels of cell culture supernatant TNFα for individual donors was measured by commercial ELISA kits.
# H5N1 influenza virus = details: mice infected with H5N1 influenza virus, treated; cited from earlier work
# TNFα [5] = assay: Poly(I:C)-stimulated human peripheral blood lymphocytes, TNFα release (ELISA)
# [6] = CD40 ligand 5 μg/mL, Donor 3, Vehicle 567.1
# [7] = CD40 ligand 5 μg/mL, Donor 4, Vehicle 546.3
# [8] = CD40 ligand 5 μg/mL, Donor 6, Vehicle 541.8
# [9] = CpG 5 μM, Donor 1, Vehicle 2155.9
# [10] = CpG 5 μM, Donor 3, Vehicle 1340.7
# [11] = CpG 5 μM, Donor 6, Vehicle 467.8
# [12] = LPS 10 ng/mL, Donor 4, Vehicle 3566.9
# [13] = LPS 10 ng/mL, Donor 6, Vehicle 10750.1
smiles,measurement,setting,value
"CCCCC[C@H](O)/C=C/[C@H]1[C@H](O)CC(=O)[C@@H]1C/C=C\CCCC(=O)O [PGE2, prostaglandin E2, reference compound]",IL-12 production by dendritic cells,IL-12 [1],impaired IL-12 production
same,Percent inhibition of IL-12 compared to uninhibited control,IL-12 [2],80% and 33% and 83% and 72%
same,TNFα percent inhibition from untreated control,TNFα [3]; Donor 1,96%
same,TNFα percent inhibition from untreated control,TNFα [3]; Donor 2,63%
same,TNFα percent inhibition from untreated control,TNFα [3]; Donor 3,81%
same,TNFα percent inhibition from untreated control,TNFα [3]; Donor 4,29%
same,TNFα in culture supernatant,TNFα [4]; [6],147.9 pg/mL
same,TNFα in culture supernatant,TNFα [4]; [7],87.0 pg/mL
same,TNFα in culture supernatant,TNFα [4]; [8],54.2 pg/mL
same,TNFα in culture supernatant,TNFα [4]; [9],104.5 pg/mL
same,TNFα in culture supernatant,TNFα [4]; [10],70.0 pg/mL
same,TNFα in culture supernatant,TNFα [4]; [11],106.2 pg/mL
same,TNFα in culture supernatant,TNFα [4]; [12],0.0 pg/mL
same,TNFα in culture supernatant,TNFα [4]; [13],174.8 pg/mL
"CCOC(=O)C1=C[C@@H](OC(CC)CC)[C@H](NC(C)=O)[C@@H](N)C1 [Tamiflu, oseltamivir]",survival of infected mice,H5N1 influenza virus,survived
"CCC1(CC/C=C/C2C(C/C=C\CCCC(=O)O)[C@H](Cl)C[C@H]2O)CCCC1 (stereo partly drawn) [Test Substance 1, (5Z,13E)-(9R,11R)-9-chloro-11-hydroxy-17,17-tetramethylene-20-nor-5,13-prostadienoic acid]",cytokine levels measured in the culture supernatant,"TNFα [4]; LPS, CD40 ligand or CpG activation",led to an inhibition in the cytokine levels
same,TNFα in culture supernatant,TNFα [4]; [6],274.3 pg/mL
same,TNFα in culture supernatant,TNFα [4]; [7],226.8 pg/mL
same,TNFα in culture supernatant,TNFα [4]; [8],142.4 pg/mL
same,TNFα in culture supernatant,TNFα [4]; [9],291.3 pg/mL
same,TNFα in culture supernatant,TNFα [4]; [10],599.4 pg/mL
same,TNFα in culture supernatant,TNFα [4]; [11],115.9 pg/mL
same,TNFα in culture supernatant,TNFα [4]; [12],643.6 pg/mL
same,TNFα in culture supernatant,TNFα [4]; [13],753.7 pg/mL
"CC#CCC(C)[C@H](O)/C=C/[C@@H]1[C@H]2c3cccc(CCCC(=O)O)c3O[C@H]2C[C@H]1O (relative stereo) [Beraprost, (+/−)-(1R*,2R*,3 as*,8bS*)-2,3,3a,8b-tetrahydro-2-hydroxy-1-[(E)-(3S*)-3-hydroxy-4-methyl-1-octen-6-ynyl]-1H-cyclopenta[b]benzofuran-5-butyrate]",TNFα percent inhibition from untreated control,"TNFα [5]; Beraprost 0.04 nM, Poly IC-stimulated peripheral blood lymphocytes, individual donors 1-2",4%
same,TNFα percent inhibition from untreated control,"TNFα [5]; Beraprost 0.11 nM, Poly IC-stimulated peripheral blood lymphocytes, individual donors 1-2",26%
same,TNFα percent inhibition from untreated control,"TNFα [5]; Beraprost 1 nM, Poly IC-stimulated peripheral blood lymphocytes, individual donors 1-2",11% and 28%
same,TNFα percent inhibition from untreated control,"TNFα [5]; Beraprost 3 nM, Poly IC-stimulated peripheral blood lymphocytes, individual donors 1-2",36% and 11%
same,TNFα percent inhibition from untreated control,"TNFα [5]; Beraprost 9 nM, Poly IC-stimulated peripheral blood lymphocytes, individual donors 1-2",35%
same,TNFα percent inhibition from untreated control,"TNFα [5]; Beraprost 250 nM, Poly IC-stimulated peripheral blood lymphocytes, individual donors 1-2",59%
same,inhibition at 0.00011 µM,"TNFα [5]; Homo sapiens, Lymphocyte, read-out: TNFα percent inhibition from untreated control, Beraprost 0.11 nM, Poly IC-stimulated peripheral blood lymphocytes, individual donors 1-2",19%
same,inhibition at 0.009 µM,"TNFα [5]; Homo sapiens, Lymphocyte, read-out: TNFα percent inhibition from untreated control, Beraprost 9 nM, Poly IC-stimulated peripheral blood lymphocytes, individual donors 1-2",46%
same,inhibition at 0.083 µM,"TNFα [5]; Homo sapiens, Lymphocyte, read-out: TNFα percent inhibition from untreated control, Beraprost 83 nM, Poly IC-stimulated peripheral blood lymphocytes, individual donors 1-2",56%
same,inhibition at 0.25 µM,"TNFα [5]; Homo sapiens, Lymphocyte, read-out: TNFα percent inhibition from untreated control, Beraprost 250 nM, Poly IC-stimulated peripheral blood lymphocytes, individual donors 1-2",67%
same,Poly(I:C)-induced TNFα,TNFα [5]; peripheral blood lymphocytes,significant descrease
